Patent US9765092B2, “Tricyclic piperidine compounds” (ACTELION PHARMACEUTICALS LTD, priority 2013, dated 2017)

Each molecule was assayed against human TPH1 (Homo sapiens (Human), UniProt P17752) (assay: Biochemical in vitro assay using fluorescence readout (TPH1 inhibition)). Settings: full length human TPH1, 40 μM L-tryptophan, 15° C., 60 minutes, fluorescence at 540 nm; mean if determined several times.
Chain of human TPH1 (P17752 whole entry): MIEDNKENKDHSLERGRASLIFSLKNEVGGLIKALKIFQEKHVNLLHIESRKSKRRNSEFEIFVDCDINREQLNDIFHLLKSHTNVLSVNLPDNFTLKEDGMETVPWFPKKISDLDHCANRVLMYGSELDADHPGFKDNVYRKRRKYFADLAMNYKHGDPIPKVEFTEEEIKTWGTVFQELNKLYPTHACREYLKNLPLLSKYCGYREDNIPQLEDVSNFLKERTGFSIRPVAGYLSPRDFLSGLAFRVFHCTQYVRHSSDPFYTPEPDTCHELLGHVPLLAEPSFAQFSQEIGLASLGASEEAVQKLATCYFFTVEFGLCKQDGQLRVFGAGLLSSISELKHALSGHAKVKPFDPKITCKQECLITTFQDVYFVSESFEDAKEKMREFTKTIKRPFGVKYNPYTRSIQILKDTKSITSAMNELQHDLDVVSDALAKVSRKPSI

Compound	IC50
Cc1nn2c3c(nc2s1)CCN(C(=O)COc1ccc(N2CCOCC2)nc1Cl)C3c1nc(N)sc1F (stereo not shown) [Example 1.52.1, 1-(5-(2-Amino-5-fluorothiazol-4-yl)-2-methyl-7,8-dihydro-[1,3,4]thiadiazolo[2′,3′:2,3]-imidazo[4,5-c]pyridin-6(5H)-yl)-2-((2-chloro-6-morpholinopyridin-3-yl)oxy)ethanone]	6 nM
Cc1nn2c3c(nc2s1)CCN(C(=O)COc1ccc(N2CC(F)(F)C2)nc1Cl)C3c1ncc(C(=O)N(C)C)s1 (stereo not shown) [Example 1.37.2, 2-(6-(2-((2-Chloro-6-(3,3-difluoroazetidin-1-yl)pyridin-3-yl)oxy)acetyl)-2-methyl-5,6,7,8-tetrahydro-[1,3,4]thiadiazolo[2′,3′:2,3]imidazo[4,5-c]pyridin-5-yl)-N,N-dimethylthiazole-5-carboxamide]	51 nM
Cc1nn2c3c(nc2s1)CCN(C(=O)COc1ccc(N2CC(F)(F)C2)nc1Cl)C3c1ccc(Cl)cc1F (stereo not shown) [Example 1.4.18, 1-(5-(4-Chloro-2-fluorophenyl)-2-methyl-7,8-dihydro-[1,3,4]thiadiazolo[2′,3′:2,3]imidazo[4,5-c]pyridin-6(5H)-yl)-2-((2-chloro-6-(3,3-difluoroazetidin-1-yl)-pyridin-3-yl)oxy)ethanone]	3 nM
Cc1nn2c3c(nc2s1)CCN(C(=O)COc1ccc(C(F)(F)F)nc1Cl)C3c1cnc(N(C)C)s1 (stereo not shown) [Example 1.22.3, 2-((2-Chloro-6-(trifluoromethyl)pyridin-3-yl)oxy)-1-(5-(2-(dimethylamino)thiazol-5-yl)-2-methyl-7,8-dihydro-[1,3,4]thiadiazolo[2′,3′:2,3]imidazo[4,5-c]pyridin-6(5H)-yl)ethanone]	136 nM

Same assay, conditions: human TPH1, fluorescence readout

Compound	IC50
CCn1nc(C(=O)OC)cc1OCC(=O)N1CCc2nc3sc(C)nn3c2C1c1sccc1F (stereo not shown) [Example 1.23.12, Methyl 1-ethyl-5-(2-(5-(3-fluorothiophen-2-yl)-2-methyl-7,8-dihydro-[1,3,4]thiadiazolo[2′,3′:2,3]imidazo[4,5-c]pyridin-6(5H)-yl)-2-oxoethoxy)-1H-pyrazole-3-carboxylate]	265 nM
O=C(COc1ccc(NS(=O)(=O)C2CC2)nc1Cl)N1CCc2nc3sccn3c2C1c1sccc1F (stereo not shown) [Example 6.8.1, N-(6-chloro-5-(2-(5-(3-fluorothiophen-2-yl)-7,8-dihydro-thiazolo[2′,3′:2,3]imidazo[4,5-c]pyridin-6(5H)-yl)-2-oxoethoxy)pyridin-2-yl)cyclopropanesulfonamide]	15 nM
O=C(COc1ccc(C(F)(F)F)cc1Cl)N1CCc2nc3sccn3c2C1c1cnn(-c2ccccc2)c1 (stereo not shown) [Example 6.13.8, 2-(2-chloro-4-(trifluoromethyl)phenoxy)-1-(5-(1-phenyl-1H-pyrazol-4-yl)-7,8-dihydrothiazolo[2′,3′:2,3]-imidazo[4,5-c]pyridin-6(5H)-yl)ethanone]	80 nM
Cc1nn2c3c(nc2s1)CCN(C(=O)C(C)(C)Oc1ccc(C(=O)N(C)C)nc1Cl)C3c1ccc(Cl)cc1F (stereo not shown) [Example 1.4.58, 6-chloro-5-((1-(5-(4-chloro-2-fluorophenyl)-2-methyl-7,8-dihydro-[1,3,4]thiadiazolo[2′,3′:2,3]imidazo[4,5-c]pyridin-6(5H)-yl)-2-methyl-1-oxopropan-2-yl)oxy)-N,N-dimethylpicolinamide]	55 nM
O=C(COc1ccc(CN2CCOCC2)nc1Cl)N1CCc2nc3sccn3c2C1c1cc2cccnc2s1 (stereo not shown) [Example 6.14.4, 2-((2-chloro-6-(morpholinomethyl)pyridin-3-yl)oxy)-1-(5-(thieno[2,3-b]pyridin-2-yl)-7,8-dihydrothiazolo-[2′,3′:2,3]imidazo[4,5-c]pyridin-6(5H)-yl)ethanone]	38 nM
CNC(=O)c1ccc(OCC(=O)N2CCc3nc4sc(C)nn4c3C2c2ccc(Cl)cc2F)c(Cl)n1 (stereo not shown) [Example 1.4.21, 6-chloro-5-(2-(5-(4-chloro-2-fluorophenyl)-2-methyl-7,8-dihydro-[1,3,4]thiadiazolo[2′,3′:2,3]imidazo[4,5-c]pyridin-6(5H)-yl)-2-oxoethoxy)-N-methylpicolinamide]	5 nM
CCc1nc(N2CCCS2(=O)=O)ccc1OCC(=O)N1CCc2nc3sc(CF)nn3c2C1c1ncc(C)cc1F (stereo not shown) [Example 7.2.1, 2-((6-(1,1-dioxidoisothiazolidin-2-yl)-2-ethylpyridin-3-yl)oxy)-1-(5-(3-fluoro-5-methylpyridin-2-yl)-2-(fluoromethyl)-7,8-dihydro-[1,3,4]thiadiazolo[2′,3′:2,3]imidazo[4,5-c]pyridin-6(5H)-yl)ethanone]	9 nM
Cc1cnc(C2c3c(nc4sc(C)nn34)CCN2C(=O)COc2ccc(NS(=O)(=O)C3CC3)nc2Cl)c(F)c1 (stereo not shown) [Example 1.31.9, N-(6-chloro-5-(2-(5-(3-fluoro-5-methylpyridin-2-yl)-2-methyl-7,8-dihydro-[1,3,4]thiadiazolo[2′,3′:2,3]imidazo[4,5-c]pyridin-6(5H)-yl)-2-oxoethoxy)pyridin-2-yl)cyclopropanesulfonamide]	21 nM
Cc1nn2c3c(nc2s1)CCN(C(=O)COc1ccc(N2CCOCC2)nc1Cl)C3c1ncc(C2CC2)cc1F (stereo not shown) [Example 1.14.1, 2-((2-chloro-6-morpholinopyridin-3-yl)oxy)-1-(5-(5-cyclopropyl-3-fluoropyridin-2-yl)-2-methyl-7,8-dihydro-[1,3,4]thiadiazolo[2′,3′:2,3]imidazo[4,5-c]pyridin-6(5H)-yl)ethanone]	4 nM
CS(=O)(=O)Nc1ccc(OCC(=O)N2CCc3nc4sc(C5CC5)nn4c3C2c2ccc(Cl)cc2F)c(Cl)n1 (stereo not shown) [Example 4.1.1, N-(6-chloro-5-(2-(5-(4-chloro-2-fluorophenyl)-2-cyclopropyl-7,8-dihydro-[1,3,4]thiadiazolo-[2′,3′:2,3]imidazo[4,5-c]pyridin-6(5H)-yl)-2-oxoethoxy)pyridin-2-yl)methanesulfonamide]	16 nM
Cc1cc(Cl)ccc1OCC(=O)N1CCc2nc3sccn3c2C1c1ccc(Cl)cc1F (stereo not shown) [Example 6.4.3, 1-(5-(4-chloro-2-fluorophenyl)-7,8-dihydrothiazolo-[2′,3′:2,3]imidazo[4,5-c]pyridin-6(5H)-yl)-2-(4-chloro-2-methylphenoxy)ethanone]	6 nM
COC1(c2csc(C3c4c(nc5sc(C)nn45)CCN3C(=O)COc3ccc(N4CCOCC4)nc3Cl)c2)COC1 (stereo not shown) [Example 1.50.1, 2-((2-chloro-6-morpholinopyridin-3-yl)oxy)-1-(5-(4-(3-methoxyoxetan-3-yl)thiophen-2-yl)-2-methyl-7,8-dihydro-[1,3,4]thiadiazolo[2′,3′:2,3]imidazo[4,5-c]pyridin-6(5H)-yl)ethanone]	6 nM
CCc1nc(NS(C)(=O)=O)ncc1OCC(=O)N1CCc2nc3sc(C)nn3c2C1c1sc(C)nc1C (stereo not shown) [Example 1.68.9, N-(5-(2-(5-(2,4-dimethylthiazol-5-yl)-2-methyl-7,8-dihydro-[1,3,4]thiadiazolo[2′,3′:2,3]imidazo[4,5-c]pyridin-6(5H)-yl)-2-oxoethoxy)-4-ethylpyrimidin-2-yl)methanesulfonamide]	66 nM
Cc1nn2c3c(nc2s1)CCN(C(=O)COc1ccc(N2CCOCC2)nc1Cl)C3c1cc(CN(C)C)cs1 (stereo not shown) [Example 1.8.1, 2-((2-chloro-6-morpholinopyridin-3-yl)oxy)-1-(5-(4-((dimethylamino)methyl)thiophen-2-yl)-2-methyl-7,8-dihydro-[1,3,4]thiadiazolo[2′,3′:2,3]imidazo[4,5-c]pyridin-6(5H)-yl)ethanone]	18 nM
Cc1nc(C2c3c(nc4sc(C)nn34)CCN2C(=O)COc2ccc(N3CCOCC3)nc2Cl)c(C)o1 (stereo not shown) [Example 1.67.1, 2-((2-chloro-6-morpholinopyridin-3-yl)oxy)-1-(5-(2,5-dimethyloxazol-4-yl)-2-methyl-7,8-dihydro-[1,3,4]thiadiazolo [2′,3′:2,3]imidazo[4,5-c]pyridin-6(5H)-yl)ethanone]	25 nM
Cc1nn2c3c(nc2s1)CCN(C(=O)COc1ccc(NS(C)(=O)=O)nc1Cl)C3c1cc(F)c(C)cc1F (stereo not shown) [Example 1.74.2, N-(6-chloro-5-(2-(5-(2,5-difluoro-4-methylphenyl)-2-methyl-7,8-dihydro-[1,3,4]thiadiazolo[2′,3′:2,3]imidazo[4,5-c]pyridin-6(5H)-yl)-2-oxoethoxy)pyridin-2-yl)methanesulfonamide]	18 nM
Cc1nn2c3c(nc2s1)CCN(C(=O)COc1ccc(NS(C)(=O)=O)nc1Cl)C3c1cnc(C(=O)N(C)C)s1 (stereo not shown) [Example 1.34.3, 5-(6-(2-((2-chloro-6-(methylsulfonamido)pyridin-3-yl)oxy)acetyl)-2-methyl-5,6,7,8-tetrahydro-[1,3,4]thiadiazolo [2′,3′:2,3]imidazo[4,5-c]pyridin-5-yl)-N,N-dimethylthiazole-2-carboxamide]	104 nM
CCOC(=O)c1ncc(C2c3c(nc4sc(C)nn34)CCN2C(=O)COc2ccc(C(F)(F)F)cc2Cl)s1 (stereo not shown) [Example 1.30.2, Ethyl 5-(6-(2-(2-chloro-4-(trifluoromethyl)phenoxy)acetyl)-2-methyl-5,6,7,8-tetrahydro-[1,3,4]thiadiazolo [2′,3′:2,3]imidazo[4,5-c]pyridin-5-yl)thiazole-2-carboxylate]	442 nM
Cc1nn2c3c(nc2s1)CCN(C(=O)COc1ccc(C#N)cc1Cl)C3c1scnc1C (stereo not shown) [Example 1.32.2, 3-chloro-4-(2-(2-methyl-5-(4-methylthiazol-5-yl)-7,8-dihydro-[1,3,4]thiadiazolo[2′,3′:2,3]imidazo[4,5-c]pyridin-6(5H)-yl)-2-oxoethoxy)benzonitrile]	83 nM
CN1CCN(c2ccc(OCC(=O)N3CCc4nc5sc(C6CC6)nn5c4C3c3ccc(Cl)cc3F)c(Cl)n2)CC1 (stereo not shown) [Example 4.1.4, 1-(5-(4-chloro-2-fluorophenyl)-2-cyclopropyl-7,8-dihydro-[1,3,4]thiadiazolo[2′,3′:2,3]imidazo[4,5-c]pyridin-6(5H)-yl)-2-((2-chloro-6-(4-methylpiperazin-1-yl)pyridin-3-yl)oxy)ethanone]	12 nM
CNC(=O)c1cc(F)c(C2c3c(nc4sc(C)nn34)CCN2C(=O)COc2ccc(N3CCOCC3)nc2Cl)s1 (stereo not shown) [Example 1.25.1, 5-(6-(2-((2-chloro-6-morpholinopyridin-3-yl)oxy)acetyl)-2-methyl-5,6,7,8-tetrahydro-[1,3,4]thiadiazolo[2′,3′:2,3]imidazo[4,5-c]pyridin-5-yl)-4-fluoro-N-methylthiophene-2-carboxamide]	5 nM
